According to patent publication US8246985B2, “Pharmaceutical composition comprising lipase inhibitor and lipophilic oil absorbent and oral formulation prepared therefrom” (Amorepacific Corporation, priority 2006, dated 2012):

Experiment: Oil adsorption test for selection of lipophilic oil absorbent
Type: physicochemical
Details: for Amount of remained oil: 1.5 g substance (0.1 g hydroxypropyl methyl cellulose and polyethylene oxide, 0.5 g light anhydrous silicic acid), 5 g soybean oil, 15 g purified water, mixed 2 min, centrifuged 3,000 g 5 min, weight of supernatant oil layer; for Adsorption (%): ratio of oil adsorbed (dispersants: oil within dispersing layer) to total oil amount (5 g)
Protocol: In order to select a lipophilic oil absorbent that is capable of adsorbing unabsorbed free oil by the action of a lipase inhibitor, various substances known as a dispersant or adsorbent were subjected to an adsorption test as follows. 1.5 g of each ingredient listed in Table 1 (excepted for 0.1 g of each of hydroxypropyl methyl cellulose and polyethylene oxide, 0.5 g of light anhydrous silicic acid), 5 g of soybean oil and 15 g of purified water were mixed in a test tube for 2 minutes and centrifuged at 3,000 g for 5 minutes. After separating the supernatant oil layer, the oil adsorption degree of each substance was determined.
In table 1, the amount of oil remained was measured from the weight of the oil layer after adsorption, and the adsorption (%) means the ratio of the amount of oil adsorbed (which is obtained by subtracting the remained oil amount from the total oil amount) to the total amount of oil. On using a dispersant, the amount of oil remained means the oil amount of a supernatant excepting oil dispersed layer, and the adsorption (%) means the ratio of the oil amount within the dispersing layer to the total oil amount (5 g).

Molecule | Amount of remained oil | Adsorption (%) (sulfate) | Adsorption (%)
CCCCCCCCCCCCOS(=O)(=O)[O-].[Na+] [Sodium lauryl sulfate] | 0.00 g | 100% | 
Polyoxyethylene(2) cetyl ether | 2.79 g |  | 2.79%
Sorbitan trioleate | 0.17 g |  | 1.13%
